Test results as given in publication PMC7827406, “Structure–Activity Relationship (SAR) Study of Spautin-1 to Entail the Discovery of Novel NEK4 Inhibitors” (International Journal of Molecular Sciences, 2021).
Like-named read-outs stand apart in the source and are kept apart here.

How the values were obtained:
Test in all cases: biochemical
Parameters in all cases: Eurofins KinaseProfiler full panel at Km ATP, residual kinase activity (%) relative to DMSO
MARK3(h) = MARK3(h) (Homo sapiens, UniProt P27448)
Chain of MARK3(h) (P27448 whole entry): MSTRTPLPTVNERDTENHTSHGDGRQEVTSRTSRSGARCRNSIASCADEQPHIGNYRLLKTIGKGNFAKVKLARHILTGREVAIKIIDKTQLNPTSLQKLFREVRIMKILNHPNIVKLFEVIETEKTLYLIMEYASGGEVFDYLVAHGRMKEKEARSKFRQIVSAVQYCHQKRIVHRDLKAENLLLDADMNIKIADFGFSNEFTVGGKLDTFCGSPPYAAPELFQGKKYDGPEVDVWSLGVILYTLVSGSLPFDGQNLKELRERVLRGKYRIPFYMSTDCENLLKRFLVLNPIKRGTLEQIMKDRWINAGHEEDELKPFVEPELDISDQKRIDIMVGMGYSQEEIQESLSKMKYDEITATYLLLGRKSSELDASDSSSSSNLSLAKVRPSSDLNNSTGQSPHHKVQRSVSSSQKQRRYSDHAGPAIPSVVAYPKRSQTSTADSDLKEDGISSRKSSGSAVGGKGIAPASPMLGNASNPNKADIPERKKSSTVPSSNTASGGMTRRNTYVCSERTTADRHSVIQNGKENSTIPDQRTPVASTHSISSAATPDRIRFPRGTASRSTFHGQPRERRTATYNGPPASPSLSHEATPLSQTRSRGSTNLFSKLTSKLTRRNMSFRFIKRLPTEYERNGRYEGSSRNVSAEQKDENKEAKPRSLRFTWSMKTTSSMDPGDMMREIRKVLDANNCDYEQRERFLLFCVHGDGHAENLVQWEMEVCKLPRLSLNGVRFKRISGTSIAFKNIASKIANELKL
In short: (§1)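 Compounds screened at 10 µM in radiometric kinase activity assays at Km ATP, reported as remaining kinase activity (%). A KINOMEscan competition-binding screen at 10 µM measured DNA-tagged kinase retained on immobilized active-site ligand by qPCR.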

LOK(h) = biological target: T1, LOK(h) (Homo sapiens, UniProt O94804)
T1 construct: gene STK10
T1 sequence (O94804 whole entry): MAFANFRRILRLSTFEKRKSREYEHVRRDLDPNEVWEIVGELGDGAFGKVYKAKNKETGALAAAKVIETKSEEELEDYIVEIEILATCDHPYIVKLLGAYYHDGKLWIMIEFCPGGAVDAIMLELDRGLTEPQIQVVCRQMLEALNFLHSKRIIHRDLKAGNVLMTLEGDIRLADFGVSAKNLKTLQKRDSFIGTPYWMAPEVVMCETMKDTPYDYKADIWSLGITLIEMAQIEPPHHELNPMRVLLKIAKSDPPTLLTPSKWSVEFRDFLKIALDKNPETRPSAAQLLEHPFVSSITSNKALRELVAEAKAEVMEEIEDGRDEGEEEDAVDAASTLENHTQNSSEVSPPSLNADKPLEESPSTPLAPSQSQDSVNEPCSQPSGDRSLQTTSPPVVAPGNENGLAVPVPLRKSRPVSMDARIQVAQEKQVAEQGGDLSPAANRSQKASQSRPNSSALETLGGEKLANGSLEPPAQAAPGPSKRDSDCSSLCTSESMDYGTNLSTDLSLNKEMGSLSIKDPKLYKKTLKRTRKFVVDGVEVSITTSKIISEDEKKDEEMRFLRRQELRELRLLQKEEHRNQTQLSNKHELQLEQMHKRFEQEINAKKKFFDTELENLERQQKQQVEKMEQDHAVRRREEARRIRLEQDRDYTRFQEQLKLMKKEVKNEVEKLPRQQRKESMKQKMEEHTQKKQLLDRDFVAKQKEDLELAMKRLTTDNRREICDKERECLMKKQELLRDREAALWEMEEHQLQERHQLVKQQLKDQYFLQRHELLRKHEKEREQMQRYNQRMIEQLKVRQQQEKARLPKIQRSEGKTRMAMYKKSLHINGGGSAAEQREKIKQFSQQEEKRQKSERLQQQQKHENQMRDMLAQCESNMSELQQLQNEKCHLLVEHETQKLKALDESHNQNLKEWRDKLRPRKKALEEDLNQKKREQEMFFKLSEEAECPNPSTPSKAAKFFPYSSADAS
In short: as §1

FGFR1(V561M)(h) = FGFR1(V561M)(h) (Homo sapiens, UniProt P11362, V561M)
Chain of FGFR1(V561M)(h) (P11362 whole entry V561M): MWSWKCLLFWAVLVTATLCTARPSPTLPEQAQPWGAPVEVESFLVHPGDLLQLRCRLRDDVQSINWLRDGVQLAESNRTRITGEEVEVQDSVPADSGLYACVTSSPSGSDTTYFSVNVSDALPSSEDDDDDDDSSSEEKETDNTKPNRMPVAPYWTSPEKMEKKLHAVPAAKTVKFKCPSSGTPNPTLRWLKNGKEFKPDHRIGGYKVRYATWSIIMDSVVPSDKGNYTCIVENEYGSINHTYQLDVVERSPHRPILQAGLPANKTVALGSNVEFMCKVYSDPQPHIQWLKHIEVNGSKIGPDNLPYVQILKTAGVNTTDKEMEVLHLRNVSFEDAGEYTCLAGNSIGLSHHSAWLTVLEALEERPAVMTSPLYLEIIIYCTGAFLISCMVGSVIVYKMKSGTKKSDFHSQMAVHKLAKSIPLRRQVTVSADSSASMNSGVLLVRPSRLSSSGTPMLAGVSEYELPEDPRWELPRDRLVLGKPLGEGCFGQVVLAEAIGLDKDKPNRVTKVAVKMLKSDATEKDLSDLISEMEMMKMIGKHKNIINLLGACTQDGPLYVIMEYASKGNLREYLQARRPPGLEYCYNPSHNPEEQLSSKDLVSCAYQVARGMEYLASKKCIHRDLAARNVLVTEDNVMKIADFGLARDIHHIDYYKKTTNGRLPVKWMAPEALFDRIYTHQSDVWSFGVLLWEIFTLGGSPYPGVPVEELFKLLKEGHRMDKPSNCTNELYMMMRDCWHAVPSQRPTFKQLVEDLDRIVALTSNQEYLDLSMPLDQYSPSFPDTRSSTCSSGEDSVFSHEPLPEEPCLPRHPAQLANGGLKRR
In short: as §1

CHK2(I157T)(h) = biological target: T2, CHK2(I157T)(h) (Homo sapiens, UniProt O96017, I157T)
T2 construct: gene CHEK2
In short: as §1

STK32A(h) = STK32A(h) (Homo sapiens, UniProt Q8WU08)
Chain of STK32A(h) (Q8WU08 whole entry): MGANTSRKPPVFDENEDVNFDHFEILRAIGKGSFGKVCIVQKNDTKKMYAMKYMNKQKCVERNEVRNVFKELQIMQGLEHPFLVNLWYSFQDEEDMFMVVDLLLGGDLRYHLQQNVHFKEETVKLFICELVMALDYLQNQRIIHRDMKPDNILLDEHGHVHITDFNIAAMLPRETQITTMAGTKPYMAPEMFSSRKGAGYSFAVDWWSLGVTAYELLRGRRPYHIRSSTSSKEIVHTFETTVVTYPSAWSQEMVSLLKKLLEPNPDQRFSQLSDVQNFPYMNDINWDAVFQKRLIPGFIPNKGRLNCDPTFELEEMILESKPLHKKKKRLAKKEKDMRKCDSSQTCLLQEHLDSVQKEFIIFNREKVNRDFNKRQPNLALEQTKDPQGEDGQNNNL
In short: as §1

PKG1α(h) = biological target: T3, PKG1α(h) (Homo sapiens, UniProt Q13976)
T3 construct: gene PRKG1; isoform 1alpha
T3 sequence (Q13976 1-671): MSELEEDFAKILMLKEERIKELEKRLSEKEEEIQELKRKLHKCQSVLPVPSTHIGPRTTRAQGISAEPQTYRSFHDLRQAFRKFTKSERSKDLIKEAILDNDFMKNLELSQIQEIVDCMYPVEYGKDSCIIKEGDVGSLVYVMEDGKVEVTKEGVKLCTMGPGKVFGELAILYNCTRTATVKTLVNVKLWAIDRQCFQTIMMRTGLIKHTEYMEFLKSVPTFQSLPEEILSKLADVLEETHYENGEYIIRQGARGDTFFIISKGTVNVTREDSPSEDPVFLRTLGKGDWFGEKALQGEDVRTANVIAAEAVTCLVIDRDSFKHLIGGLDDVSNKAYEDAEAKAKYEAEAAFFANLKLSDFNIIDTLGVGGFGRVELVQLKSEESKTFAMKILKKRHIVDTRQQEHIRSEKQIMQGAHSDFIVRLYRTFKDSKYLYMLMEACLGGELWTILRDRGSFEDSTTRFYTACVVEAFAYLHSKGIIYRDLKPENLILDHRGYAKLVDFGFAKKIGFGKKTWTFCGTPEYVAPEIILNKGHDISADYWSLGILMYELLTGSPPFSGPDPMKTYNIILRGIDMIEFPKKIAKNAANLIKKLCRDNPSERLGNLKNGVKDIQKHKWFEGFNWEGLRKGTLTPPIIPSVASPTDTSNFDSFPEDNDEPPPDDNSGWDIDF
In short: as §1

DCAMKL3(h) = biological target: T4, DCAMKL3(h) (Homo sapiens, UniProt Q9C098)
T4 construct: gene DCLK3
T4 sequence (Q9C098 1-648): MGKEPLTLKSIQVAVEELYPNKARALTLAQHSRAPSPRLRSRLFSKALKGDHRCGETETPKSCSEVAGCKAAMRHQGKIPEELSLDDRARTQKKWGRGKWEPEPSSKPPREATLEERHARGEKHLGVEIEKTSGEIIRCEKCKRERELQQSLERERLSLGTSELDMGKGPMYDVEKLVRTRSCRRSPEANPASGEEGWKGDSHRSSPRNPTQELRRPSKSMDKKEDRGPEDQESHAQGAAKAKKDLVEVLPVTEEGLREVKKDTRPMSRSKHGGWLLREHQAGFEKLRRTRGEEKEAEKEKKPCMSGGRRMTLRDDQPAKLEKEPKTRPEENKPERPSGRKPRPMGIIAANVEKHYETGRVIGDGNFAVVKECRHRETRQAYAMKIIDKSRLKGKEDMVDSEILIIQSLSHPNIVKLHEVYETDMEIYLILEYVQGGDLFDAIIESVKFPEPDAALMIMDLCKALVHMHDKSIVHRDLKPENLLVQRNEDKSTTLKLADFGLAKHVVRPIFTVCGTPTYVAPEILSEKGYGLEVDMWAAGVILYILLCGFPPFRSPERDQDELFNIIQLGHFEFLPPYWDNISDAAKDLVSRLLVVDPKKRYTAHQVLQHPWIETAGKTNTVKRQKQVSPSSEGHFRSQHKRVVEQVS
In short: as §1

PKCγ(h) = biological target: T5, PKCγ(h) (Homo sapiens, UniProt P05129)
T5 construct: gene PRKCG
In short: as §1

CDK5/p35(h) = biological target: T6, CDK5/p35(h) (Homo sapiens, UniProt Q00535)
T6 construct: p35
T6 sequence (Q00535 whole entry): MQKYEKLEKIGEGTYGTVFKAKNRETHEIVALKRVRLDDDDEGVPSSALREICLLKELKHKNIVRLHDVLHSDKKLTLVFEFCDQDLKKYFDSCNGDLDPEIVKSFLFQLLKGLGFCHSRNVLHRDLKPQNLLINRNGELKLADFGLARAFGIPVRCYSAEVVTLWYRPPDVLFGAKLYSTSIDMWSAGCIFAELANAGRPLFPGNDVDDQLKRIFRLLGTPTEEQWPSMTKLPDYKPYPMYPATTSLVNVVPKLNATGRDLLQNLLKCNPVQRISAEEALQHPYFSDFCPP
T6 sequence (Q15078 whole entry partner): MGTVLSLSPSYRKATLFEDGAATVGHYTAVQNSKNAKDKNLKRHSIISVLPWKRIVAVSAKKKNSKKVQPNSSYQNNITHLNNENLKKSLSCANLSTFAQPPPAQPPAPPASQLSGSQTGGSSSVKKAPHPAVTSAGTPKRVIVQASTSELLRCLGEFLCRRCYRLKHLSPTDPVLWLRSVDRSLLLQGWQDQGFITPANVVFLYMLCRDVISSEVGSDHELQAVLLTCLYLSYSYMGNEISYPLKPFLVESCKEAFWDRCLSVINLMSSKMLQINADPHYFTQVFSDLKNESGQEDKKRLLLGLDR
In short: as §1

mTOR/FKBP12(h) = mTOR/FKBP12(h) (Homo sapiens, UniProt P42345)
In short: as §1

PDHK4(h) = biological target: T7, PDHK4(h) (Homo sapiens, UniProt Q16654)
T7 construct: gene PDK4
T7 sequence (Q16654 whole entry): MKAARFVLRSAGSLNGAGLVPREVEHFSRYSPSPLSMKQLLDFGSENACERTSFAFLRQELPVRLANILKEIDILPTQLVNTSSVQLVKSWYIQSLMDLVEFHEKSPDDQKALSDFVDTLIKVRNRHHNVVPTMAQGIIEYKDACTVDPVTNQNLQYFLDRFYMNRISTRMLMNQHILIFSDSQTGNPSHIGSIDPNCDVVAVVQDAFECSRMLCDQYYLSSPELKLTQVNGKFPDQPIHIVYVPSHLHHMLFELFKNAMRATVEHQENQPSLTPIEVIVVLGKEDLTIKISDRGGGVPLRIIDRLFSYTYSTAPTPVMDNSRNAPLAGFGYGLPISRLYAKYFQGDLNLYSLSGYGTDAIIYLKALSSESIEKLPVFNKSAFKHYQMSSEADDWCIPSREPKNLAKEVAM
In short: as §1

[1] = read-out: Residual activity (%) Spautin-1 5aa
[2] = read-out: Residual activity (%) 5as
[3] = read-out: Residual activity (%) 5at
[4] = read-out: Residual activity (%) 5ay

For `Fc1ccc(CNc2ncnc3ccc(F)cc23)cc1` [5aa, 6-Fluoro-N-(4-fluorobenzyl)-4-Quinazolinamine], the remaining activity at 10 µM (MARK3(h); [1]) was 95%, the remaining activity at 10 µM (LOK(h); [1]) was 91% and the remaining activity at 10 µM (FGFR1(V561M)(h); [1]) was 123%. For the same compound, the remaining activity at 10 µM (CHK2(I157T)(h); [1]) was 88%, the remaining activity at 10 µM (STK32A(h); [1]) was 95% and the remaining activity at 10 µM (PKG1α(h); [1]) was 91%. It also gave a remaining activity at 10 µM (DCAMKL3(h); [1]) of 102%, a remaining activity at 10 µM (PKCγ(h); [1]) of 86% and a remaining activity at 10 µM (CDK5/p35(h); [1]) of 87%. For the same compound, the remaining activity at 10 µM (mTOR/FKBP12(h); [1]) was 100% and the remaining activity at 10 µM (PDHK4(h); [1]) was 106%.

`Fc1ccc(CCNc2ncnc3ccc(F)cc23)cc1` [5as, 6-Fluoro-N-[2-(4-Fluorophenyl)Ethyl]-4-Quinazolinamine] was tested, and the remaining activity at 10 µM (MARK3(h); [2]) was 87%, the remaining activity at 10 µM (LOK(h); [2]) was 81% and the remaining activity at 10 µM (FGFR1(V561M)(h); [2]) was 100%. The remaining activity at 10 µM (CHK2(I157T)(h); [2]) was 105%, the remaining activity at 10 µM (STK32A(h); [2]) was 99% and the remaining activity at 10 µM (PKG1α(h); [2]) was 96%. The remaining activity at 10 µM (DCAMKL3(h); [2]) was 108%, the remaining activity at 10 µM (PKCγ(h); [2]) was 74% and the remaining activity at 10 µM (CDK5/p35(h); [2]) was 87%. It also gave a remaining activity at 10 µM (mTOR/FKBP12(h); [2]) of 89% and a remaining activity at 10 µM (PDHK4(h); [2]) of 102%.

`Fc1ccc2ncnc(NCCc3ccc(Cl)cc3)c2c1` [5at, N-[2-(4-Chlorophenyl)Ethyl]-6-Fluoro-4-Quinazolinamine] was tested, and the remaining activity at 10 µM (MARK3(h); [3]) was 85%, the remaining activity at 10 µM (LOK(h); [3]) was 87% and the remaining activity at 10 µM (FGFR1(V561M)(h); [3]) was 95%. The remaining activity at 10 µM (CHK2(I157T)(h); [3]) was 99%, the remaining activity at 10 µM (STK32A(h); [3]) was 100% and the remaining activity at 10 µM (PKG1α(h); [3]) was 93%. For the same compound, the remaining activity at 10 µM (DCAMKL3(h); [3]) was 107%, the remaining activity at 10 µM (PKCγ(h); [3]) was 72% and the remaining activity at 10 µM (CDK5/p35(h); [3]) was 87%. The remaining activity at 10 µM (mTOR/FKBP12(h); [3]) was 94% and the remaining activity at 10 µM (PDHK4(h); [3]) was 101%.

With `COc1ccc2ncnc(Nc3cccc(F)c3)c2c1` [5ay, N-(3-Fluorophenyl)-6-Methoxy-4-Quinazolinamine] the remaining activity at 10 µM (MARK3(h); [4]) was 89%, the remaining activity at 10 µM (LOK(h); [4]) was 35% and the remaining activity at 10 µM (FGFR1(V561M)(h); [4]) was 108%. It also gave a remaining activity at 10 µM (CHK2(I157T)(h); [4]) of 91%, a remaining activity at 10 µM (STK32A(h); [4]) of 103% and a remaining activity at 10 µM (PKG1α(h); [4]) of 95%. It also gave a remaining activity at 10 µM (DCAMKL3(h); [4]) of 108%, a remaining activity at 10 µM (PKCγ(h); [4]) of 81% and a remaining activity at 10 µM (CDK5/p35(h); [4]) of 89%. It also gave a remaining activity at 10 µM (mTOR/FKBP12(h); [4]) of 88% and a remaining activity at 10 µM (PDHK4(h); [4]) of 104%.
